Measurements from US11512053B2, “Arginine methyltransferase inhibitors and uses thereof” (priority 2013, dated 2022).
Counter-ions that a name gives are not always drawn. Like-named read-outs stand apart in the source and are kept apart here.

What was measured:
[1] = target: full-length human PRMT6 (Flag- and His-tagged) (Homo sapiens, UniProt Q96LA8); assay: PRMT6 Biochemical Assay (3H-SAM Flashplate, peptide substrate); conditions: read-out: Biochemical IC50 PRMT6
Procedure, shortened: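 Radiometric methyltransferase readout: tritium transfer onto a biotin-tagged histone H4 36-50 peptide bearing monomethyl K44 (75 nM), captured on streptavidin Flashplates after stopping with 400 uM unlabeled SAM. Enzyme is baculovirus-expressed Flag-PRMT6-His at 1 nM, given 30 min with compound at room temperature before adding 200 nM 3H-SAM and 250 nM cold SAM (pH 7.6 Bicine, 2% DMSO). Percent inhibition relative to max/min (1 mM SAH) controls, curve-fit to IC50.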

[2] = system: mono-methyl arginine in RKO cells; assay: RKO Methylation Assay, In Cell Western (ICW) for detection of mono-methyl arginine and DNA content; format: cell-based; conditions: Homo sapiens, RKO, 72 h
Procedure, shortened: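 RKO cells were treated with compound for 72 hours at 37 °C, methanol-fixed and stained overnight at 4 °C with anti-mono-methyl arginine (1:200), with DRAQ5 for DNA. Odyssey 800/700 nm intensity ratio was normalized to DMSO and 20 μM reference-compound controls. EC30 from triplicate nine-point curves.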

[3] = single experiment or average of multiple experiments
[4] = RKO cells, 72 hours incubation, mono-methyl arginine signal normalised to DNA content, single experiment or average of multiple experiments, read-out: In Cell Western EC30
[5] = RKO cells, 72 hours compound incubation, mono-methyl arginine signal normalised to DNA content (DRAQ5), percent activation vs 20 μM reference compound, read-out: In Cell Western EC30
[6] = read-out: In Cell Western EC30, RKO cells, 72 hours compound incubation, mono-methyl arginine signal normalised to DNA content (DRAQ5), percent activation vs 20 μM reference compound
[7] = read-out: In Cell Western EC30, RKO cells, 72 hours incubation, mono-methyl arginine signal normalised to DNA content, single experiment or average of multiple experiments

Chain of full-length human PRMT6 (Flag- and His-tagged) (Q96LA8 with tags, fused parts or gaps): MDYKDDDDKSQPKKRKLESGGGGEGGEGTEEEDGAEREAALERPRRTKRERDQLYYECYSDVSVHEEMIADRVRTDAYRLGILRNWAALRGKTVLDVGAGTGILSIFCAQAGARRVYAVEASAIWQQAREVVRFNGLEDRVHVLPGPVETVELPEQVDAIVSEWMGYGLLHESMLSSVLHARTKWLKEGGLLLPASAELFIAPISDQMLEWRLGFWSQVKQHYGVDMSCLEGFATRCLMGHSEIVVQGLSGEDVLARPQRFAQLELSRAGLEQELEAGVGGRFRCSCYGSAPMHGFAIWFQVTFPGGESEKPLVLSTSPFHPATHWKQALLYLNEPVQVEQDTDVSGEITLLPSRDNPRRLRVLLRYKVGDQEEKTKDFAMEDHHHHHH

| IC50 [1] | IC50 [1, 3] | SMILES | EC30 [2, 4] | EC30 [2, 5] | EC30 [2, 6] | EC30 [2, 7] |
| --- | --- | --- | --- | --- | --- | --- |
| < 100 nM | 24.3 nM | CNCCN(C)Cc1c[nH]nc1C1CCC(C)(C)CC1 [Compound 52] | 41 nM | – | – | – |
| < 100 nM | 38 nM | CNCCN(C)Cc1c[nH]nc1C1CCC(COC)CC1 (stereo not drawn) [Compound 53] | 17 nM | < 3000 nM | – | – |
| < 100 nM | 40.4 nM | CNCCN(C)Cc1c[nH]nc1C1CCC(CCOC)CC1 (stereo not drawn) [Compound 55] | 63 nM | < 3000 nM | – | – |
| < 100 nM | 69.4 nM | CNCCN(C)Cc1c[nH]nc1C1CCC(COC)(COC)CC1 [Compound 57] | 25 nM | < 3000 nM | – | – |
| < 100 nM | 108 nM | CNCCN(C)Cc1c[nH]nc1C1CCC(OCCOC)CC1 (stereo not drawn) [Compound 58] | 978 nM | – | – | – |
| 101 to 1000 nM | 128 nM | CNCCN(C)Cc1c[nH]nc1C1CC(C)(C)OC(C)(C)C1 [Compound 59] | 357 nM | – | – | – |
| 101 to 1000 nM | 155 nM | CNCCN(C)Cc1c[nH]nc1C1CCC(COCCOC)(COCCOC)CC1 [Compound 60] | 2840 nM | < 3000 nM | – | – |
| < 100 nM | 12.1 nM | CNCCN(C)Cc1c[nH]nc1C1CCC2(CC1)CC(C)OC(C)C2 (stereo not drawn) [Compound 63] | 1090 nM | < 3000 nM | – | – |
| < 100 nM | 41.9 nM | CNCCN(C)Cc1c[nH]nc1C1CCC2(CCC(C)(C)CC2)OC1 (stereo not drawn) [Compound 65] | 77.5 nM | < 3000 nM | – | – |
| < 100 nM | 18 nM | CNCCN(C)Cc1c[nH]nc1C1CCC(Oc2ccccc2)CC1 (stereo not drawn) [Compound 67] | 81 nM | < 3000 nM | – | – |
| 3010 to 10000 nM | 3410 nM | CNCCN(C)Cc1c[nH]nc1C1CC(COC)C(C)(C)C(COC)C1 (stereo not drawn) [Compound 86] | 16.8 nM | < 3000 nM | – | – |
| < 100 nM | 63.1 nM | CNCCN(C)Cc1c[nH]nc1C1CCC(C)(C)C(C(=O)NCCC(C)C)C1 (stereo not drawn) [Compound 91] | 2060 nM | < 3000 nM | – | – |
| < 100 nM | 49 nM | CNCCN(C)Cc1c[nH]nc1C1CCC(C)(C)C(C(=O)NCc2ccccc2)C1 (stereo not drawn) [Compound 92] | 2170 nM | < 3000 nM | – | – |
| < 100 nM | 12.4 nM | CNCCN(C)Cc1c[nH]nc1[C@H]1CC[C@@]2(CC1)CC(C)(C)CO2 [Compound 133, Methyl[2-(methylamino)ethyl]([3-[(5s,8s)-3,3-dimethyl-1-oxaspiro[4.5]decan-8-yl]-1H-pyrazol-4-yl]methyl)amine] | – | – | < 3000 nM | 43.8 nM |

Further lines, the compound ahead of its results:

| SMILES | IC50 [1] | IC50 [1, 3] | EC30 [2, 4] | EC30 [2, 5] | EC30 [2, 6] | EC30 [2, 7] |
| --- | --- | --- | --- | --- | --- | --- |
| CNCCN(C)Cc1c[nH]nc1C1CCC2(CCOC2)CC1 (stereo not drawn) [Compound 54] | < 100 nM | 38.2 nM | 87 nM | < 3000 nM | – | – |
| CNCCN(C)Cc1c[nH]nc1C1CCC(OC(C)C)CC1 (stereo not drawn) [Compound 56] | < 100 nM | 61.8 nM | 96 nM | – | – | – |
| CNCCN(C)Cc1c[nH]nc1C1CCC(COC(C)C)(COC(C)C)CC1 [Compound 61] | < 100 nM | 49.1 nM | 149 nM | < 3000 nM | – | – |
| CNCCN(C)Cc1c[nH]nc1C1CCC2(CCCCC2)OC1 (stereo not drawn) [Compound 62] | < 100 nM | 29 nM | 169 nM | < 3000 nM | – | – |
| CCC(CC)OC1CCC(c2n[nH]cc2CN(C)CCNC)CC1 (stereo not drawn) [Compound 70] | < 100 nM | 44 nM | 50 nM | < 3000 nM | – | – |
| CCOCC1CC(c2n[nH]cc2CN(C)CCNC)CC(COCC)C1(C)C (stereo not drawn) [Compound 87] | 3010 to 10000 nM | 3730 nM | 2530 nM | < 3000 nM | – | – |
| CNCCN(C)Cc1c[nH]nc1C1CCC(C)(C)C(C(=O)NCC(C)C)C1 (stereo not drawn) [Compound 90] | 101 to 1000 nM | 122 nM | 316 nM | < 3000 nM | – | – |
| CNCCN(C)Cc1c[nH]nc1C1CCC(C)(C)C(COCC(C)C)C1 (stereo not drawn) [Compound 95] | < 100 nM | 69.2 nM | 122 nM | < 3000 nM | – | – |
| CNCCN(C)Cc1c[nH]nc1[C@H]1CC[C@]2(CC1)CC(C)(C)CO2 [Compound 134, methyl[2-(methylamino)ethyl]([3-[(5r,8r)-3,3-dimethyl-1-oxaspiro[4.5]decan-8-yl]-1H-pyrazol-4-yl]methyl)amine] | < 100 nM | 35.1 nM | – | – | < 3000 nM | 33.2 nM |
| CNCCN(C)Cc1ccnn1C1CCC2(CC1)CC(C)(C)CO2 (stereo not drawn) [Compound 274, trifluoroacetate] | 101 to 1000 nM | 103 nM | – | – | < 3000 nM | 16.8 nM |
| CNCCN(C)Cc1ccnn1C1CCC2(CCCC2)CC1 [Compound 275, Methyl[2-(methylamino)ethyl][(1-[spiro[4.5]decan-8-yl]-1H-pyrazol-5-yl)methyl]amine trifluoroacetate] | < 100 nM | 18.6 nM | – | – | < 3000 nM | 84 nM |
